In PubChem BioAssay AID248 (DTP/NCI, 2004):
Values joined by “and” are separate entries in the source; they are usually repeats but may differ in a detail not shown here. Identical values can stand only once. Inconclusive results and toxic doses are left out. Cut-off read from the data, not from the text of the source: active = T/C of 150% or more; inactive = T/C below 125%.

System: L1210 leukemia ip in BDF1 mice, survival T/C
Assay: NCI In Vivo Anticancer Drug Screen. Data for tumor model L1210 Leukemia (intraperitoneal) in B6D2F1 (BDF1) mice
Settings: endpoint: mean survival time, higher = longer survival
Method in brief: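 Antitumor effect is assessed in tumor-bearing animals. Survival in the compound arm is compared with a vehicle-dosed control arm and expressed as their quotient.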

[1] = dose: 100.0 mg/kg/injection, schedule: Q04DX003 (ip), vehicle: saline with Tween-80
[2] = dose: 200.0 mg/kg/injection, schedule: Q04DX003 (ip), vehicle: saline with Tween-80
[3] = dose: 400.0 mg/kg/injection, schedule: Q04DX003 (ip), vehicle: saline with Tween-80
[4] = dose: 100.0 mg/kg/injection, schedule: Q01DX001 (ip), vehicle: saline
[5] = dose: 200.0 mg/kg/injection, schedule: Q01DX001 (ip), vehicle: saline
[6] = dose: 400.0 mg/kg/injection, schedule: Q01DX001 (ip), vehicle: saline
[7] = dose: 50.0 mg/kg/injection, schedule: Q01DX001 (ip), vehicle: carboxymethylcellulose (CMC)
[8] = dose: 100.0 mg/kg/injection, schedule: Q01DX001 (ip), vehicle: carboxymethylcellulose (CMC)
[9] = dose: 200.0 mg/kg/injection, schedule: Q01DX001 (ip), vehicle: carboxymethylcellulose (CMC)
[10] = dose: 100.0 mg/kg/injection, schedule: Q04DX003 (ip), vehicle: saline
[11] = dose: 200.0 mg/kg/injection, schedule: Q04DX003 (ip), vehicle: saline
[12] = dose: 400.0 mg/kg/injection, schedule: Q04DX003 (ip), vehicle: saline
[13] = dose: 75.0 mg/kg/injection, schedule: Q01DX001 (ip), vehicle: saline
[14] = dose: 100.0 mg/kg/injection, schedule: Q04DX002 (ip), vehicle: Klucel (hydroxypropylcellulose) (HPC)
[15] = dose: 200.0 mg/kg/injection, schedule: Q04DX002 (ip), vehicle: Klucel (hydroxypropylcellulose) (HPC)
[16] = dose: 400.0 mg/kg/injection, schedule: Q04DX002 (ip), vehicle: Klucel (hydroxypropylcellulose) (HPC)

Measured: T/C

CS(=O)(=O)OCCN(CCOS(C)(=O)=O)c1ccc(C=Nc2cc(Cl)c(O)c(Cl)c2)cc1
inactive: dose: 20.0 mg/kg/injection, schedule: Q04DX003 (ip), vehicle: Klucel (hydroxypropylcellulose) (HPC) 107 % of control | dose: 40.0 mg/kg/injection, schedule: Q04DX003 (ip), vehicle: Klucel (hydroxypropylcellulose) (HPC) 120 % of control | dose: 80.0 mg/kg/injection, schedule: Q04DX003 (ip), vehicle: Klucel (hydroxypropylcellulose) (HPC) 86 % of control | dose: 100.0 mg/kg/injection, schedule: Q04DX003 (ip), vehicle: Klucel (hydroxypropylcellulose) (HPC) 110 % of control

COC(=O)c1cccn1C(=O)c1ccccc1[N+](=O)[O-]
inactive: dose: 50.0 mg/kg/injection, schedule: Q04DX002 (ip), vehicle: other 105 % of control | dose: 100.0 mg/kg/injection, schedule: Q04DX002 (ip), vehicle: other 97 % of control | dose: 200.0 mg/kg/injection, schedule: Q04DX002 (ip), vehicle: other 94 % of control

O=C(Cn1ccc(O)cc1=O)c1ccc(Cl)s1
inactive: dose: 100.0 mg/kg/injection, schedule: Q01DX009 (ip), vehicle: saline with Tween-80 111 % of control | [1] 98 % of control | dose: 200.0 mg/kg/injection, schedule: Q01DX009 (ip), vehicle: saline with Tween-80 90 % of control | [2] 93 % of control | dose: 400.0 mg/kg/injection, schedule: Q01DX009 (ip), vehicle: saline with Tween-80 91 % of control | [3] 98 % of control

NC(=Nc1ccc(Cl)cc1)N/N=C/c1ccc(Cl)cc1
inactive: dose: 5.0 mg/kg/injection, schedule: Q01DX001 (ip), vehicle: saline 94 % of control | dose: 10.0 mg/kg/injection, schedule: Q01DX001 (ip), vehicle: saline 100 % of control | dose: 20.0 mg/kg/injection, schedule: Q01DX001 (ip), vehicle: saline 94 % of control | dose: 40.0 mg/kg/injection, schedule: Q01DX001 (ip), vehicle: saline 91 % of control | dose: 80.0 mg/kg/injection, schedule: Q01DX001 (ip), vehicle: saline 91 % of control | [4] 92 % of control | [5] 89 % of control | [6] 103 % of control

CC(C)=NNC(=O)c1ccccn1
inactive: [7] 101 % of control | dose: 50.0 mg/kg/injection, schedule: Q01DX009 (ip), vehicle: carboxymethylcellulose (CMC) 104 % of control | dose: 50.0 mg/kg/injection, schedule: Q04DX003 (ip), vehicle: carboxymethylcellulose (CMC) 100 % of control | [8] 104 % of control | dose: 100.0 mg/kg/injection, schedule: Q01DX009 (ip), vehicle: carboxymethylcellulose (CMC) 104 % of control and 106 % of control | dose: 100.0 mg/kg/injection, schedule: Q04DX003 (ip), vehicle: carboxymethylcellulose (CMC) 115 % of control | [9] 113 % of control

CNCC(OC)c1ccc(O)c(O)c1 (stereo unspecified)
inactive: dose: 100.0 mg/kg/injection, schedule: Q01DX009 (ip), vehicle: saline 105 % of control | [10] 108 % of control | dose: 200.0 mg/kg/injection, schedule: Q01DX009 (ip), vehicle: saline 105 % of control | [11] 106 % of control | [12] 108 % of control

CCC1(C(C)Br)OC2=C(CC(C#N)(C#N)C(C#N)(C#N)C2)O1 (stereo unspecified)
inactive: dose: 25.0 mg/kg/injection, schedule: Q01DX009 (ip), vehicle: other 100 % of control | dose: 50.0 mg/kg/injection, schedule: Q01DX009 (ip), vehicle: saline 87 % of control | [13] 100 % of control | dose: 75.0 mg/kg/injection, schedule: Q01DX009 (ip), vehicle: other 87 % of control

CN(C)CCCC#N
inactive: [10] 97 % of control | [11] 95 % of control

S=C1SCN(C2CCCCCCCCCCC2)CN1C1CCCCCCCCCCC1
inactive: [1] 96 % of control | [2] 91 % of control | [3] 95 % of control

C/C=C(/C)C(=O)OCCCCCCCCC
inactive: [14] 102 % of control | [15] 102 % of control | [16] 94 % of control

CC/C(N)=C\C(=O)c1ccccc1
inactive: [14] 102 % of control | [15] 105 % of control | [16] 98 % of control

Oc1cccc(-c2nnc(-c3cccc(O)c3)nn2)c1
inactive: [4] 101 % of control | [5] 96 % of control | [6] 102 % of control

O=C(O)C(Cl)Cl
inactive: [10] 98 % of control | [11] 93 % of control

O=S1(=O)CC2(N3CCOCC3)CCCCC21 (stereo unspecified)
inactive: [7] 98 % of control | [8] 104 % of control | [9] 98 % of control

CC1(C)CC(OP(=O)(OC2CC(C)(C)N(O)C(C)(C)C2)c2ccccc2)CC(C)(C)N1O
inactive: dose: 100.0 mg/kg/injection, schedule: Q01DX001 (ip), vehicle: water 91 % of control | dose: 200.0 mg/kg/injection, schedule: Q01DX001 (ip), vehicle: water 106 % of control | dose: 400.0 mg/kg/injection, schedule: Q01DX001 (ip), vehicle: water 89 % of control

O=[N+]([O-])c1cccc(/C=C/CCOc2ccccc2)c1
inactive: dose: 100.0 mg/kg/injection, schedule: Q01DX009 (sc), vehicle: olive oil, sesame oil, peanut oil 97 % of control | dose: 100.0 mg/kg/injection, schedule: Q04DX003 (sc), vehicle: olive oil, sesame oil, peanut oil 101 % of control | dose: 200.0 mg/kg/injection, schedule: Q01DX009 (sc), vehicle: olive oil, sesame oil, peanut oil 114 % of control | dose: 200.0 mg/kg/injection, schedule: Q04DX003 (sc), vehicle: olive oil, sesame oil, peanut oil 100 % of control | dose: 400.0 mg/kg/injection, schedule: Q01DX009 (sc), vehicle: olive oil, sesame oil, peanut oil 109 % of control | dose: 400.0 mg/kg/injection, schedule: Q04DX003 (sc), vehicle: olive oil, sesame oil, peanut oil 103 % of control

O=C(COc1ccc(F)cc1Cl)OCCOCCO
inactive: [14] 106 % of control | [15] 95 % of control | [16] 106 % of control

C[N+]1(CCC[N+]2(C)CC3CC=CCC3C2)CCOCC1 (stereo unspecified)
inactive: [10] 92 % of control | [11] 92 % of control | [12] 92 % of control

COc1cccc(CNCc2cccc(OC)c2O)c1O
inactive: [4] 96 % of control

CCOCc1nc(N)nc(N)c1-c1ccc(Cl)c(Cl)c1
inactive: [8] 97 % of control | [9] 89 % of control | dose: 400.0 mg/kg/injection, schedule: Q01DX001 (ip), vehicle: carboxymethylcellulose (CMC) 108 % of control

CCCCCCCCCCCCCCCC(=O)NCC(C)NC(=O)CCCCCCCCCCCCCCC (stereo unspecified)
inactive: [13] 95 % of control | dose: 150.0 mg/kg/injection, schedule: Q01DX001 (ip), vehicle: saline 96 % of control | dose: 300.0 mg/kg/injection, schedule: Q01DX001 (ip), vehicle: saline 103 % of control

C/C(CCCCCCCCC#N)=N/NC(N)=O
inactive: dose: 100.0 mg/kg/injection, schedule: Q01DX001 (ip), vehicle: Klucel (hydroxypropylcellulose) (HPC) 103 % of control | dose: 200.0 mg/kg/injection, schedule: Q01DX001 (ip), vehicle: Klucel (hydroxypropylcellulose) (HPC) 106 % of control | dose: 400.0 mg/kg/injection, schedule: Q01DX001 (ip), vehicle: Klucel (hydroxypropylcellulose) (HPC) 105 % of control
